One test has as its target T1, 5-HT2A receptor (Rattus norvegicus, UniProt P14842).
T1 construct: Eight strips of tissue (0.5 cm long) were cut. and were mounted in 10 ml organ baths; tissue Charles River Laboratories; host or cells: rat aorta strips, endothelium removed
In words: cell-based. Conditions: read-out: 5HT2A (pKb) (converted). The procedure:
The rat aorta (approximately 7 cm) was isolated and removed from the animal (male Sprague Dawley rat, Charles River Laboratories, Hollister, Calif.). The endothelium was removed mechanically. Eight strips of tissue (0.5 cm long) were cut. and were mounted in 10 ml organ baths kept at 37° C. with Krebs solution (composition in mM: NaCl (118.2), KCl (4.6), CaCl2 (2.5), MgSO4 (1.2), KH2PO4 (1.2), NaHCO3 (24.8) and dextrose (10.0)) that was constantly aerated with carbogen gas (95% O2/5% CO2) to obtain a pH of 7.4. The tissues were subjected to a resting tension of 2 g (3 times, 15 minutes apart, equilibrated in Krebs solution). The tissues were then washed 15 minutes later. Ten minutes later, the tissues were then exposed to 0.1 μM phenylephrine. At the maximal effect, 1 μM acetylcholine was added to confirm the absence of endothelium and then washed twice, 2 minutes apart.
Contractions were recorded as changes in tension from baseline and expressed as a percentage of the maximum response of the agonist (5-HT) concentration-effect curve. Agonist concentration-response curves were fitted using a nonlinear iterative fitting program (GraphPad Prism) using the relationship of Parker and Waud (Parker, R. B. and Waud, D. R. (1971). Pharmacological estimation of drug-receptor dissociation constants. Statistical evaluation. I. Agonists. J. Pharmacol. Exp. Ther., 177, 1-12). Agonist potency was expressed as EC50 (molar concentration of agonist producing 50% of the maximum response). Concentration-ratios (CRs) were determined from EC50 values in the presence and absence of antagonist and antagonist affinity estimates (pKB and pA2 values) were determined. All data are expressed as mean±s.e. mean.

Test [1] has as its target T2, human D2s dopamine receptors (Homo sapiens, UniProt P14416).
T2 construct: expressed in transfected cells; host or cells: Chinese hamster ovary cells (membranes)
In words: hD2S receptor radioligand binding ([3H]spiperone). Conditions: pKi reported on a scale of 1 through 5. The protocol: (§1) Consistent with standard competition radioligand binding assays, the methodology was based on displacement of radioligand from tissues (or cell lines) bearing the receptor of interest (Cheng, Y. and Prusoff, W. H. (1973). Biochem. Pharmacol. 22, 3099-3108). The measurements were based on the binding of a single concentration of radiolabeled ligand in the presence of various concentrations of unlabeled ligand.
(§2) Tissues (or cellular plasma membrane fractions) were incubated in the presence of radioligand at equilibrium and in the presence of a range of concentrations of the test compounds (which were non-radiolabeled), and the displaced radioligand was separated from the membranes by filtration. Nonspecific binding was assessed by measuring displacement of the radioligand in the presence of a compound known to block binding of the radioligand to the receptor. Finally, the concentration-response relationship for radioligand displacement (corrected for non-specific binding) was used to assess binding of the test compound to the receptor.

In another test the target is T3, human M1 receptors (Homo sapiens, UniProt P11229).
T3 construct: expressed in transfected cells; host or cells: Chinese hamster ovary cells (membranes)
T3 sequence (P11229 1-460): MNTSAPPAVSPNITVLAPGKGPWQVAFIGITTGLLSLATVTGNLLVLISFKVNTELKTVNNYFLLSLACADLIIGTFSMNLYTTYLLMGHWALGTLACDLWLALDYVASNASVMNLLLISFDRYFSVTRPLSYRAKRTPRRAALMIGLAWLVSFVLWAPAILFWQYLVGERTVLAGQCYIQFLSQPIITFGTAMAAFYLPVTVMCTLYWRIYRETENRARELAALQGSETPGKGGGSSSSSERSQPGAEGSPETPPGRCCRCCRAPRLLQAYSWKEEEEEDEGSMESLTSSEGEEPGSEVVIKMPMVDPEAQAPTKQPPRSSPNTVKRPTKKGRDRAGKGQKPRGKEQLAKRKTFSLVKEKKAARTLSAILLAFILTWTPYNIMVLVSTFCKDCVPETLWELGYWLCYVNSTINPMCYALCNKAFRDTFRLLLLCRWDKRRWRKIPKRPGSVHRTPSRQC
Nature of the test: hM1 receptor radioligand binding ([3H]NMS). The settings on record: pKi reported on a scale of 1 through 5. The procedure:
as §1, §2

The target of the next test is T4, human H1 receptors (Homo sapiens, UniProt P35367).
T4 construct: expressed in transfected cells; host or cells: Chinese hamster ovary cells (membranes)
In words: hH1 receptor radioligand binding ([3H]Pyrilamine). Conditions: pKi reported on a scale of 1 through 5. The protocol:
as §1, §2

Another test has as its target T5, human 5HT1A receptors (Homo sapiens, UniProt P08908).
T5 construct: expressed in transfected cells; host or cells: Chinese hamster ovary cells (membranes)
T5 sequence (P08908 1-422): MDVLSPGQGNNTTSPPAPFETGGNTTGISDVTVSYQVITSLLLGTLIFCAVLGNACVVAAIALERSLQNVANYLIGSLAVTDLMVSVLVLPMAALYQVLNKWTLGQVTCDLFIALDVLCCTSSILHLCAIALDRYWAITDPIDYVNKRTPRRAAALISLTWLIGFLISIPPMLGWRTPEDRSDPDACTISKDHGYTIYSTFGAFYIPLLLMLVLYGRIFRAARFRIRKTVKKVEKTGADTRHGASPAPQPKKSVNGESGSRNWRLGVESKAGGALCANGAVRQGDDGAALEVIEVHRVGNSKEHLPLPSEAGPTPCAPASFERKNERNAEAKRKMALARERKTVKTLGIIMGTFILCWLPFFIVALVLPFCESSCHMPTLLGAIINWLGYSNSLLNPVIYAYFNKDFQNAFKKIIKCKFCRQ
In words: h5-HT1A receptor radioligand binding ([3H]8OH-DPAT). The settings on record: pKi reported on a scale of 1 through 5. The procedure: as §1, §2

The target of the next test is T6, human 5HT2C receptors (Homo sapiens, UniProt P28335).
T6 construct: expressed in transfected cells; host or cells: human embryo kidney cells (membranes)
T6 sequence (P28335 33-458): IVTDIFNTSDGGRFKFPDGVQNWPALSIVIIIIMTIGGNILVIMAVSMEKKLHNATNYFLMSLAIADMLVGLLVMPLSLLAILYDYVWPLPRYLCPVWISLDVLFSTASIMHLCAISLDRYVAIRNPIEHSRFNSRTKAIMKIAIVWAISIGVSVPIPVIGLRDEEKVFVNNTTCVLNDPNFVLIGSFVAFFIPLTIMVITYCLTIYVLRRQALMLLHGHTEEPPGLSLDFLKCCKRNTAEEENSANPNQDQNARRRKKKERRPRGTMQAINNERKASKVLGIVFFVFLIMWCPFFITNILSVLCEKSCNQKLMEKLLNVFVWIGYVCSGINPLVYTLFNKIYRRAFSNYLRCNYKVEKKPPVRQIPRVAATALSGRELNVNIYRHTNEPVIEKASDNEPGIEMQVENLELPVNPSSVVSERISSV
Nature of the test: h5-HT2C receptor radioligand binding ([3H]Mesulergine). The settings on record: pKi reported on a scale of 1 through 5. The protocol: The measurements were based on the binding of a single concentration of radiolabeled ligand in the presence of various concentrations of unlabeled ligand.
as §2

Setting [2] is: pKb reported on a scale of 1 through 5.

Where two headings read alike, the source gives them in different places.

T4 sequence (P35367 whole entry): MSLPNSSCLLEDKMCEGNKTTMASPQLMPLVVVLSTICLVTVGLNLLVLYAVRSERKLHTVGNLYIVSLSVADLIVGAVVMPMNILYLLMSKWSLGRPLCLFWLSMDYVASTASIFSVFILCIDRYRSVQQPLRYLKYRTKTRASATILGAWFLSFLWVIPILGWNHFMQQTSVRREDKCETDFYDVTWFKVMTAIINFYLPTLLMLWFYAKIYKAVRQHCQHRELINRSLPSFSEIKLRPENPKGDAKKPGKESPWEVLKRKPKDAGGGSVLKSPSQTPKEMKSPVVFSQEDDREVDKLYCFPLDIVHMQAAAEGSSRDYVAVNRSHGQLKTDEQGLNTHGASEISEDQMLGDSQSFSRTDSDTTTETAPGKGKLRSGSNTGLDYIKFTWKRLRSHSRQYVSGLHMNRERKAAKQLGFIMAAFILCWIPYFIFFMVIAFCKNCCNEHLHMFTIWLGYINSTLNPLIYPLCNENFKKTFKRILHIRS
T2 sequence (P14416 1-414 isoform P14416-2): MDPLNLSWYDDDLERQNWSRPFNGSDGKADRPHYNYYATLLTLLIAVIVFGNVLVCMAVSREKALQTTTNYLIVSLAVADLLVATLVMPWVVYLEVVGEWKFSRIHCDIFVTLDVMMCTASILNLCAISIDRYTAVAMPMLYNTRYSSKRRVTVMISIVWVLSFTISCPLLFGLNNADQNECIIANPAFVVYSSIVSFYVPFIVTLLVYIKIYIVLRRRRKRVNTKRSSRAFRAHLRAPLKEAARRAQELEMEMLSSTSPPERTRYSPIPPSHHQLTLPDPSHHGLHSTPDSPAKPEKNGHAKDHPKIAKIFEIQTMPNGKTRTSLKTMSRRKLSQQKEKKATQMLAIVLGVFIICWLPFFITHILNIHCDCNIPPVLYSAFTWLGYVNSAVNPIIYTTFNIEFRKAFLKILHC
T1 sequence (P14842 whole entry): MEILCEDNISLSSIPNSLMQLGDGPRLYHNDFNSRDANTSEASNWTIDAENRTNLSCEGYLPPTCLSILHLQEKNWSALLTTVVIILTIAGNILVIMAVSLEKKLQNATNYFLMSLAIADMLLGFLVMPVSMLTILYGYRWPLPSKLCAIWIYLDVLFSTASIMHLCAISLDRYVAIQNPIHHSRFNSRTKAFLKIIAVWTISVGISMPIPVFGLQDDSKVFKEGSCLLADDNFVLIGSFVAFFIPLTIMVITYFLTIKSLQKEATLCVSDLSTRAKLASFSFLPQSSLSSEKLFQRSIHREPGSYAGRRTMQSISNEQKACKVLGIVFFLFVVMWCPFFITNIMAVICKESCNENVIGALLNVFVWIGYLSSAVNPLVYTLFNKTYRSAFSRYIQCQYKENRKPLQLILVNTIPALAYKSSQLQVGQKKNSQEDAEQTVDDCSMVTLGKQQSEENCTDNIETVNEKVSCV

As for `CCOC(=O)CC1CN(C2=Nc3ccccc3Oc3ccc(Cl)cc32)CCN1` (single isomer, unassigned) [Compound C, (E)-ethyl 2-(4-(2-chlorodibenzo[b,f][1,4]oxazepin-11-yl)piperazin-2-yl)acetate], on 5-HT2A receptor, the Kb was 0.0316 to 0.0977 µM. In addition, the inhibitory constant (Ki) (usually a dissociation constant, usually derived from enzyme kinetics or from competition with a known ligand) in test [1] was 2.51 to 9.77 µM; on human M1 receptors it was more than 10 µM.
Turning to `CC(C)CNC(=O)CC1CN(C2=Nc3cc(Cl)ccc3Oc3ccccc32)CCN1` (centres unmarked) [B, (E)-2-(4-(8-chlorodibenzo[b,f][1,4]oxazepin-11-yl)piperazin-2-yl)-N-isobutylacetamide], the Kb on 5-HT2A receptor was 0.0316 to 0.0977 µM. Also, the results for the Ki (in test [1]; on human M1 receptors) were 0.158 to 0.617 µM and more than 10 µM, respectively.
`CCOC(=O)c1ccc(CCC2CN(C3=Nc4cc(Cl)ccc4Oc4ccccc43)CCN2)cc1` (centres unmarked) [Compound F, (E)-ethyl 4-(2-(4-(8-chlorodibenzo[b,f][1,4]oxazepin-11-yl)piperazin-2-yl)ethyl)benzoate]: the Kb on 5-HT2A receptor (setting [2]) was more than 0.1 µM. The Ki in test [1] is 0.631 to 2.45 µM; at human H1 receptors it was 1 to 9.77 µM; on human M1 receptors, 1.26 to 2.45 µM.
`COC(=O)c1ccc(OC[C@H]2CN(C3=Nc4ccccc4Oc4ccc(Cl)cc43)CCN2)cc1` [D, (R,E)-methyl 4-((4-(2-chlorodibenzo[b,f][1,4]oxazepin-11-yl)piperazin-2-yl)methoxy)benzoate]: at 5-HT2A receptor, the Kb was 0.0316 to 0.0977 µM. The inhibitory constant (Ki) in test [1] was 0.631 to 2.45 µM; on human H1 receptors, 0.1 to 0.977 µM; at human M1 receptors, more than 10 µM.
Turning to `COC(=O)COCC1CN(C2=Nc3ccccc3Oc3ccc(Cl)cc32)CCN1C` (centres unmarked) [DM, (E)-methyl 2-((4-(2-chlorodibenzo[b,f][1,4]oxazepin-11-yl)-1-methylpiperazin-2-yl)methoxy)acetate], the Kb at 5-HT2A receptor was 0.01 to 0.0309 µM. In addition, the inhibitory constant (Ki) in test [1] was more than 10 µM.
Take `CN1CCN(C2=Nc3cc(Cl)ccc3Oc3ccccc32)CC1CC(=O)O` (centres unmarked) [DO, (E)-2-(4-(8-chlorodibenzo[b,f][1,4]oxazepin-11-yl)-1-methylpiperazin-2-yl)acetic acid]: the Ki in test [1] is more than 10 µM; at human 5HT1A receptors, 1 to 9.77 µM; on human 5HT2C receptors it was 0.1 to 0.977 µM; on human H1 receptors, 0.01 to 0.0977 µM.
Take `CC[C@H](C)OC(=O)C[C@H]1CN(C2=Nc3cc(Cl)ccc3Oc3ccccc32)CCN1` [EP, sec-butyl 2-((S)-4-((E)-8-chlorodibenzo[b,f][1,4]oxazepin-11-yl)piperazin-2-yl)acetate]: the Kb at 5-HT2A receptor is 0.01 to 0.0309 µM. The Ki is 0.158 to 0.617 µM in test [1], 0.01 to 0.0977 µM at human 5HT1A receptors, 0.1 to 0.977 µM at human H1 receptors and 5.01 to 9.77 µM on human M1 receptors.
For the compound `CN1CC[C@@H](OC(=O)C[C@H]2CN(C3=Nc4cc(Cl)ccc4Oc4ccccc43)CCN2C)C1` [ES, (R)-1-methylpyrrolidin-3-yl 2-((S)-4-((E)-8-chlorodibenzo[b,f][1,4]oxazepin-11-yl)-1-methylpiperazin-2-yl)acetate], the Ki in test [1] is more than 10 µM; on human 5HT1A receptors, 1 to 9.77 µM; on human H1 receptors it was 0.01 to 0.0977 µM; at human M1 receptors, more than 10 µM.
As for `COC(=O)C[C@H]1CN(C2=Nc3cc(Cl)ccc3Oc3ccccc32)CCN1CC1CC1` [ET, (S,E)-methyl 2-(4-(8-chlorodibenzo[b,f][1,4]oxazepin-11-yl)-1-(cyclopropylmethyl)piperazin-2-yl)acetate], the Kb on 5-HT2A receptor (setting [2]) was more than 0.1 µM. Besides, the Ki was 0.631 to 2.45 µM in test [1], 1 to 9.77 µM at human 5HT1A receptors, 0.1 to 0.977 µM on human H1 receptors and 2.51 to 4.9 µM on human M1 receptors.
`CN1CCN(C2=Nc3cc(Cl)ccc3Oc3ccccc32)C[C@@H]1CC(=O)NC(CF)CF` [EV, (S,E)-2-(4-(8-chlorodibenzo[b,f][1,4]oxazepin-11-yl)-1-methylpiperazin-2-yl)-N-(1,3-difluoropropan-2-yl)acetamide]: at 5-HT2A receptor, the Kb is 0.0316 to 0.0977 µM. Also, the Ki in test [1] is 2.51 to 9.77 µM; at human 5HT1A receptors, 1 to 9.77 µM; at human H1 receptors, 0.01 to 0.0977 µM; on human M1 receptors, 5.01 to 9.77 µM.
Regarding `CN1CCN(C2=Nc3cc(Cl)ccc3Oc3ccccc32)C[C@@H]1CC(=O)OCCCF` [EX, (S,E)-3-fluoropropyl 2-(4-(8-chlorodibenzo[b,f][1,4]oxazepin-11-yl)-1-methylpiperazin-2-yl)acetate], the Ki was 2.51 to 9.77 µM in test [1]; 1 to 9.77 µM on human 5HT1A receptors; 0.1 to 0.977 µM on human 5HT2C receptors; 0.01 to 0.0977 µM at human H1 receptors; 5.01 to 9.77 µM on human M1 receptors.
Consider `COC(=O)c1ccc(OCC2CN(C3=Nc4cc(Cl)ccc4Oc4ccccc43)CCN2)cc1` (centres unmarked) [G, (E)-methyl 4-((4-(8-chlorodibenzo[b,f][1,4]oxazepin-11-yl)piperazin-2-yl)methoxy)benzoate], for which, at 5-HT2A receptor, the Kb was 0.01 to 0.0309 µM. Also, the results for the inhibition constant (Ki) (in test [1]; at human H1 receptors; on human M1 receptors) were 2.51 to 9.77 µM, 1 to 9.77 µM and 5.01 to 9.77 µM, respectively.
Regarding `O=C(C[C@H]1CN(C2=Nc3cc(Cl)ccc3Oc3ccccc32)CCN1)N1CC[C@@H](O)C1` [GE, 2-((S)-4-((E)-8-chlorodibenzo[b,f][1,4]oxazepin-11-yl)piperazin-2-yl)-1-((R)-3-hydroxypyrrolidin-1-yl)ethanone], the Kb at 5-HT2A receptor is 0.01 to 0.0309 µM. In addition, the figures for the Ki (in test [1]; at human 5HT1A receptors; on human M1 receptors) were 2.51 to 9.77 µM, 0.1 to 0.977 µM and 2.51 to 4.9 µM, respectively.
Turning to `COCCNC(=O)C[C@H]1CN(C2=Nc3cc(Cl)ccc3Oc3ccccc32)CCN1CCO` [GI, (S,E)-2-(4-(8-chlorodibenzo[b,f][1,4]oxazepin-11-yl)-1-(2-hydroxyethyl)piperazin-2-yl)-N-(2-methoxyethyl)acetamide], on 5-HT2A receptor, the Kb is 0.0316 to 0.0977 µM. Further, the Ki in test [1] is more than 10 µM; on human 5HT1A receptors, 1 to 9.77 µM; on human M1 receptors it was more than 10 µM.

Source of the values: US20120178738A1, “DIBENZO [B,F] [1,4]OXAZAPINE COMPOUNDS” (ARYX THERAPEUTICS, INC., priority 2007, published 2012).
